{"source": "ChEMBL document CHEMBL5143679", "about": "“Discovery of 3, 6-disubstituted isobenzofuran-1(3H)-ones as novel inhibitors of monoamine oxidases” (Bioorg Med Chem Lett, 2022)", "biological_target": "T1, Amine oxidase [flavin-containing] A (Rattus norvegicus, UniProt P21396)", "T1 sequence (P21396 whole entry)": "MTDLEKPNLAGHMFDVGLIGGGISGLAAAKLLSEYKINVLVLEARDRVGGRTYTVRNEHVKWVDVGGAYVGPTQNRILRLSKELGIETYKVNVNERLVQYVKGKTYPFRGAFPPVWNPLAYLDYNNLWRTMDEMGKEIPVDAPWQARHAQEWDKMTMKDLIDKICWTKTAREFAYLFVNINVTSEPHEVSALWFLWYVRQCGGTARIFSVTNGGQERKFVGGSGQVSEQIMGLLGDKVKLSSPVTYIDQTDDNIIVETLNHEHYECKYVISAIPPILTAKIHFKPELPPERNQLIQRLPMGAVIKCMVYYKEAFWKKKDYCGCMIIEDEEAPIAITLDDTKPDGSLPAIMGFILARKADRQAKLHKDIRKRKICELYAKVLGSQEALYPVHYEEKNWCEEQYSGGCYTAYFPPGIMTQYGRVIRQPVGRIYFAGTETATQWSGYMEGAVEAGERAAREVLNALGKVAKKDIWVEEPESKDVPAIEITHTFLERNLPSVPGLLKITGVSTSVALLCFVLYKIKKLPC", "assay": "Inhibition of Sprague-Dawley rat MAO-A"}
{"smiles": "C[C@H](NCc1ccc(OCc2cccc(F)c2)cc1)C(N)=O", "note": "[SAFINAMIDE]", "values": [{"measurement": "IC50", "value": 2.8, "unit": "µM"}]}
